Reference: patent US20210228660A1, “USE OF PROTEASOME INHIBITOR AND […] PREPARATION OF ANTI-TUMOR MEDICAMENT” (GUANGZHOU VIROTECH PHARMACEUTICAL CO., LTD., priority 2018, published 2021)

Legend:
Type in all cases: cell-based
[1] = test system: human hepatocellular carcinoma Huh 7; assay: Cell morphology observation under phase contrast microscope, Huh 7; conditions: 48 h, Bortezomib 5 nM, M1 virus 0.1 moi, FIG. 1
Protocol: (§1) a) Cell culture: human hepatocellular carcinoma Hep3B and Huh 7 were grown in DMEM complete medium containing 10% FBS, 100 U/ml penicillin and 0.1 mg/ml streptomycin; all cell strains were cultured and passaged in a closed incubator at a constant temperature of 37° C. (95% relative humidity) with 5% CO2, and the growth was observed under inverted microscope. The cells were passaged about every 2 to 3 days, and the cells in the logarithmic phase were used in the formal experiment.
(§2) b) Cell treatment and morphological observation: cells in the logarithmic growth phase and the DMEM complete culture medium (containing 10% fetal bovine serum and 1% double antibody) were selected to prepare cell suspension, and the cells were inoculated in a 24-well culture plate at a density of 2.5×10^4/well.

[2] = test system: human hepatocellular carcinoma Huh 7; assay: MTT cell viability, Bortezomib and M1 virus, 48 h; conditions: Huh-7, 48 h, read-out: relative cell viability of tumor cells
Protocol: (§3) a) Inoculating cells, and drug administering treatment: cells in the logarithmic growth phase and the DMEM complete culture medium (containing 10% fetal bovine serum and 1% double antibody) were selected to prepare cell suspension, and were inoculated in a 96-well culture plate at a density of 4×10^3/well. 12 h later, the cells were completely adhered to the wall. The cells were divided into control group without medicament nor virus treatment, Bortezomib treatment group, M1 infection group and Bortezomib/M1 combined group.
b) MTT reacted with intracellular succinate dehydrogenase: after culturing for 48 h, 20 μl (5 mg/ml) of MTT was added to each well and incubated for 4 h, at this time, the granular bluish violet formazan crystals formed in living cells could be observed under microscope.
(§4) c) Dissolving formazan granules: the supernatant was carefully removed, DMSO 100 μl/well was added to dissolve the crystal, shaked in a microoscillator for 5 min, and then detect the optical density (OD value) of each well with wavelength of 570 nm on the enzyme-linked detector. The experiment was repeated for 3 times in each group. Cell viability=OD value of medicament treatment group/OD value of control group×100%.
The EC50 shift of the two curves was calculated, that is, the EC50 shift in FIG. 2, the larger the difference value was, the more significant the medicament synergized.

[3] = test system: human hepatocellular carcinoma Hep3B; assay: Cell morphology observation under phase contrast microscope, Hep3B; conditions: 48 h, Bortezomib 5 nM, M1 virus 0.001 moi, FIG. 1
Protocol: as §1, §2

[4] = test system: human hepatocellular carcinoma Huh 7; assay: MTT cell viability, various proteasome inhibitors and M1 virus, 72 h
Protocol: as §3, with “proteasome inhibitor group (including CEP-18770, MLN-9708, ONX-0912),” for “Bortezomib treatment group,”, “infected” for “infection”, “proteasome inhibitor/M1” for “Bortezomib/M1”
b) MTT reacted with intracellular succinate dehydrogenase: after culturing for 72 h, 20 μl (5 mg/ml) of MTT was added to each well and incubated for 4 h, at this time, the granular bluish violet formazan crystals formed in living cells could be observed under microscope.
as §4, with “vibrate” for “shaked”, “detector.” for “detector. The experiment was repeated for 3 times in each group.”, “group x 100%.” for “group×100%.”

[5] = Homo sapiens, Huh-7, 72 h, read-out: relative cell viability of tumor cells

Molecule: CC(C)C[C@H](NC(=O)[C@H](Cc1ccccc1)NC(=O)c1cnccn1)B(O)O [Bortezomib]
- morphological changes of cells [1]: no significant change in cell morphology
- viability at 0.005 µM [2]: 99.7%
- morphological changes of cells [3]: no significant change in cell morphology

Molecule: Ixazomib [MLN-9708]
- relative cell viability of tumor cells ([4]; FIG. 4B, Huh 7, MTT, 72 h, MLN-9708 5 nM, M1 virus MOI=0.1): 77.7%

Molecule: CC(C)C[C@H](NC(=O)[C@@H](NC(=O)c1cccc(-c2ccccc2)n1)[C@@H](C)O)B(O)O [CEP-18770, Delanzomib]
- viability at 0.005 µM [4, 5]: 105%

Molecule: COC[C@H](NC(=O)c1cnc(C)s1)C(=O)N[C@@H](COC)C(=O)N[C@@H](Cc1ccccc1)C(=O)[C@@]1(C)CO1 [ONX-0912, Oprozomib]
- viability at 0.05 µM [4, 5]: 70%
